# Measured values: publication PMC11648822, “Lactam Truncation Yields a Dihydroquinazolinone Scaffold with Potent Antimalarial Activity that Targets PfATP4” (Chemmedchem, 2024)
# Like-named read-outs stand apart in the source and are kept apart here.
# Columns and labels:
# [1] = tested on: P. falciparum Dd2 PfATP4^F156L strain; assay: 'compound 49' resistant parasite viability assay (LDH), Dd2 F156L; type: cell-based; conditions: Plasmodium falciparum, DD2, 72 h, read-out: Dd2^F156L EC50 (SD)
# Method: (§1) These assays were performed according to a previously described protocol.[16] Briefly, P. falciparum Dd2 strains treated with compound were incubated for 72 h at 37 °C. After incubating for 72 h, plates were frozen at −80 °C and then thawed at room temperature for at least 2 h. LDH activity, a surrogate for parasite growth was measured by the addition of the Malstst reagent mix, followed by incubation for 30 min and absorbance read using a ClarioStar Microplate reader at 650 nm. Values were normalized to DMSO control as a percentage and EC50 and dose response curves generated using GraphPad Prism.
# [2] = tested on: P. falciparum Dd2 PfATP4^D425E strain; assay: 'compound 49' resistant parasite viability assay (LDH), Dd2 D425E; type: cell-based; conditions: Plasmodium falciparum, DD2, 72 h, read-out: Dd2^D425E EC50 (SD)
# Method: as §1
# [3] = tested on: P. falciparum Dd2 strain with 2.8-fold amplification in PfATP4; assay: 'compound 49' resistant parasite viability assay (LDH), Dd2 2.8 CNV; type: cell-based; conditions: Plasmodium falciparum, DD2, 72 h, read-out: Dd2^2.8 CNV EC50 (SD)
# Method: as §1
# [4] = tested on: P. falciparum Dd2 PfATP4^triple (I398F, P990R, D1247Y) strain; set-up: method as in Ashton, Dans et al. 10; conditions: ref Ashton, Dans et al. 10; cited from earlier work
# [5] = tested on: P. falciparum (Pf) 3D7 parasites; set-up: method as in PMID 36812492, PMID 39134060; conditions: Figure 1; cited from earlier work
# [6] = set-up: method as in PMID 39134060; conditions: 25 mg/kg oral dose, 4-day model; recrudescence detected after day 4; cited from earlier work
# [7] = Figure 1; cited from earlier work
# [8] = tested on: P. falciparum (Pf) 3D7 parasites; assay: P. falciparum LDH viability assay; type: cell-based; conditions: Plasmodium falciparum, 3D7, 72 h, LDH activity at 72 h; mean and SD of 3 independent experiments
# Source text: This assay is a platform assay conducted at the Walter and Eliza Hall Institute and uses a protocol previously decsribed.[30, 31]
# [9] = Human HepG2 cytotoxicity assay (Cell Titre Glo); type: cell-based; conditions: HepG2 cells, growth inhibition at 48 h, 4 replicate experiments, read-out: HepG2 CC50 (SD)
# Source text: This assay uses Cell TitreGlo as a metabolic maker for human HepG2 cell growth and uses a protocol previously described.[32]
# [10] = tested on: P. falciparum Dd2 parental strain; assay: PfATP4 drug resistant parasite viability assay (LDH), Dd2 parental; type: cell-based; conditions: Plasmodium falciparum, DD2, 72 h, read-out: Dd2^parental EC50 (SD)
# Method: as §1
# [11] = tested on: P. falciparum Dd2 PfATP4^triple (I398F, P990R, D1247Y) strain; assay: PfATP4 drug resistant parasite viability assay (LDH), Dd2 triple; type: cell-based; conditions: Plasmodium falciparum, DD2, 72 h, read-out: Dd2^triple EC50 (SD)
# Method: as §1
# [12] = tested on: P. falciparum Dd2 PfATP4^G358S strain; assay: PfATP4 drug resistant parasite viability assay (LDH), Dd2 G358S; type: cell-based; conditions: Plasmodium falciparum, DD2, 72 h, read-out: Dd2^G358S EC50 (SD)
# Method: as §1
# [13] = tested on: P. falciparum 3D7 parasites; assay: P. falciparum viability assay (SYBR green), 3D7; type: cell-based; conditions: Plasmodium falciparum, 3D7; SYBR green, 72 h; read-out: P. falciparum parental EC50 (SD) 3D7
# Method: (§2) These assays were performed as previously described.[16] […] Parasites were synchronised with 5 % (w/v) sorbitol (Sigma‐Aldrich) treatments for ring stages. […] Parasites were grown in 1 % haematocrit, at 1 % and 2 % parasitaemia for P. falciparum and P. knowlesi respectively. […] Parasitaemia was measured using a SYBR DNA staining assay on a fluorometer.[33] After the incubation period, supernatants were removed and well contents were resuspended in PBS.
# P. falciparum Dd2 = assay: P. falciparum viability assay (SYBR green), Dd2; type: cell-based; conditions: Plasmodium falciparum, DD2, 72 h, read-out: P. falciparum parental EC50 (SD) Dd2
# Method: (§3) These assays were performed as previously described.[16] P. falciparum 3D7 parasites and resistant lines Dd2, W2mef, 7G8, and artemisinin‐resistant Cambodian isolate (Cam3.I (2539T)), and P. knowlesi YH1, were cultured in human O^+ erythrocytes (RBCs) (Australian Red Cross Blood Service), in RPMI‐HEPES culture medium (pH 7.4, 50 μg/mL hypoxanthine, 25 mM NaHCO3, 20 μg/mL gentamicin, 0.5 % Albumax II (GibcoBRL)) (Thermo Fisher Scientific) and maintained in an atmosphere of 1 % O2, 4 % CO2 and 95 % N2. Parasites were synchronised with 5 % (w/v) sorbitol (Sigma‐Aldrich) treatments for ring stages. Growth assays for measuring drug inhibition of in‐cycle, ring to schizont stage parasites have been described previously. Parasites were grown in 1 % haematocrit, at 1 % and 2 % parasitaemia for P. falciparum and P. knowlesi respectively. […] Parasitaemia was measured using a SYBR DNA staining assay on a fluorometer.[33] After the incubation period, supernatants were removed and well contents were resuspended in PBS.
# [14] = tested on: P. knowlesi YH1 parasites; assay: P. knowlesi viability assay (SYBR green); type: cell-based; conditions: Plasmodium knowlesi, 48 h, read-out: P. knowlesi EC50 (SD) YH1
# Method: as §2
# P. falciparum W2^mef = assay: Multidrug-resistant parasite viability assay (SYBR green), W2mef; type: cell-based; conditions: Plasmodium falciparum, W2, 72 h, read-out: multidrug resistant P. falciparum strains EC50 (SD) W2^mef
# Method: as §3
# P. falciparum 7G8 = assay: Multidrug-resistant parasite viability assay (SYBR green), 7G8; type: cell-based; conditions: Plasmodium falciparum, 7G8, 72 h, read-out: multidrug resistant P. falciparum strains EC50 (SD) 7G8
# Method: as §3
# P. falciparum CAM3.1 = assay: Multidrug-resistant parasite viability assay (SYBR green), CAM3.1; type: cell-based; conditions: Plasmodium falciparum, 72 h, read-out: multidrug resistant P. falciparum strains EC50 (SD) CAM3.1
# Method: as §3
# [15] = tested on: P. falciparum Dd2 parental strain; set-up: method as in Ashton, Dans et al. 10; conditions: LDH at 72 h; ref Ashton, Dans et al. 10; cited from earlier work
# [16] = tested on: P. falciparum Dd2 PfATP4^G358S strain; set-up: method as in Ashton, Dans et al. 10; conditions: ref Ashton, Dans et al. 10; cited from earlier work
# P. berghei ANKA = assay: P. berghei 4-day mouse model; type: in vivo; conditions: 30 mg/kg p.o. q.d.
# Method: In this model, mice are infected with P. berghei ANKA asexual blood stage parasites. Compounds are then administered by oral gavage at 20 mg/kg 2, 24, 48, and 72 hours after the parasite infection.
# Each day, a fresh aliquot of the compound stock was diluted 1/10 in water for administration to mice. 8 week old female mice (Ozgene) on day 0 were infected with 2×10^7 P. berghei ANKA‐infected erythrocytes. […] 2 mice were also dosed with artesunate using the same regime at 30 mg/kg. The parasitemia of mice was assessed by visualizing Giemsa‐stained thin blood smears by microscopy and a minimum of 1000 RBCs were counted. To calculate the percent antimalarial activity the following formula was used: 100 ‐ (mean parasitemia treated day 4 post‐infection/mean parasitemia vehicle control day 4 post‐infection)×100. Mice were culled the day following the last oral gavage.
# Briefly, ‘donor’ female Swiss mice were infected intraperitoneally (IP) with blood stage P. berghei parasites constitutively expressing GFP (P. berghei ANKA GFPcon 259cl2).[36] Three days later, groups of 3 ‘acceptor’ Swiss mice were infected intravenously with 1 x 10^7 parasitised red blood cells from the ‘donor mice’. […] Control mice were left untreated. Peripheral blood samples were taken 24 h after administration of the last dose, and parasitemia was measured by flow cytometry (proportion of GFP‐positive cells in 100,000 recorded events using Attune Nxt, ThermoFisher) and microscopic analysis of Giemsa‐stained blood smears. Parasitemia values were averages of 3 mice per group.
# [17] = biological target: T1, PfATP4 (membranes prepared from 3D7 parasites) (Plasmodium falciparum, UniProt A0A143ZZK9); assay: PfATP4 Na+ assay (membrane ATPase), 3D7 membranes; type: biochemical, P. falciparum; conditions: 50 nM; any of the conditions tested; negative control
# T1 construct: The membranes were prepared from isolated trophozoite‐stage 3D7 parasites; endogenous in cells; host or cells: P. falciparum 3D7 trophozoites (membrane preparation)
# Method: Figure 4 Dihydroquinazolinone analogs 14 and 36 (WJM062) inhibit Na^+‐ATPase activity in membranes prepared from isolated P. falciparum parasites, consistent with them being PfATP4 inhibitors. (A) The effects of dihydroquinazolinone compounds (2 μM), dihydroartemisinin (DHA; 50 nM; negative control) and 0.2 % v/v DMSO (solvent‐only control) on membrane ATPase activity under high‐[Na^+] conditions (152 mM Na^+) and low‐[Na^+] conditions (2 mM Na^+; stemming from the addition of 1 mM Na2ATP) in the presence and absence of the PfATP4 inhibitor cipargamin (50 nM). The membranes were prepared from isolated trophozoite‐stage 3D7 parasites. The Pi produced is expressed as a percentage of that measured in the 152 mM Na^+ Control. The data are from four independent experiments performed with different membrane preparations; the symbols show the data from individual experiments and the bars show the mean (+SEM). In individual experiments, the Pi produced in the 152 mM Na^+ Control varied from 66 to 96 nmol per mg (total) protein per min. A repeated measures ANOVA with a post hoc Tukey test was used to compare the (pre‐normalised) data for different compounds and conditions. For comparisons between different conditions for the same test compound (or for the Control), significant differences are shown with black asterisks. For comparisons between the Control and a compound under the same test condition, significant differences are shown with coloured asterisks (in this case, grey asterisks, as the only significant differences were between the control and the dihydroquinazolinone compounds in the 152 mM Na^+ condition). ***P<0.001. (B) Concentration‐dependence of the effects of dihydroquinazolinone compounds on PfATP4‐associated ATPase activity in membranes prepared from 3D7 parasites. The data are the mean (shown + or − SEM) obtained from four independent experiments performed with different membrane preparations, with the exception of the lowest and second‐lowest concentrations of the compounds, for which data are from two and three independent experiments, respectively. (C and D) Potency of dihydroquinazolinone compounds against PfATP4‐associated ATPase activity in membranes prepared from Dd2‐Polδ‐PfATP4^G358S parasites (open triangles) and their Dd2‐Polδ parents (closed triangles). The data are the mean (shown + or − SEM) from four (C) or three (D) independent experiments. In B−D, the Pi production measured in the low‐[Na^+] (2 mM) condition was subtracted from that measured in high‐[Na^+] (152 mM) in the presence of each of the different concentrations of dihydroquinazolinone compounds to calculate the PfATP4‐associated ATPase activity. The PfATP4‐associated ATPase activity is expressed as a percentage of that obtained for the high‐[Na^+] (152 mM) Control.
# Membrane ATPase assays were performed using a PiColorLock Gold Phosphate Detection System (Innova Biosciences), essentially as described previously.[25] Membranes were prepared either from isolated 3D7 trophozoites or from isolated Dd2‐Polδ‐PfATP4^G358S [22] and Dd2‐Polδ trophozoites.[26]
# T1 sequence (A0A143ZZK9 whole entry): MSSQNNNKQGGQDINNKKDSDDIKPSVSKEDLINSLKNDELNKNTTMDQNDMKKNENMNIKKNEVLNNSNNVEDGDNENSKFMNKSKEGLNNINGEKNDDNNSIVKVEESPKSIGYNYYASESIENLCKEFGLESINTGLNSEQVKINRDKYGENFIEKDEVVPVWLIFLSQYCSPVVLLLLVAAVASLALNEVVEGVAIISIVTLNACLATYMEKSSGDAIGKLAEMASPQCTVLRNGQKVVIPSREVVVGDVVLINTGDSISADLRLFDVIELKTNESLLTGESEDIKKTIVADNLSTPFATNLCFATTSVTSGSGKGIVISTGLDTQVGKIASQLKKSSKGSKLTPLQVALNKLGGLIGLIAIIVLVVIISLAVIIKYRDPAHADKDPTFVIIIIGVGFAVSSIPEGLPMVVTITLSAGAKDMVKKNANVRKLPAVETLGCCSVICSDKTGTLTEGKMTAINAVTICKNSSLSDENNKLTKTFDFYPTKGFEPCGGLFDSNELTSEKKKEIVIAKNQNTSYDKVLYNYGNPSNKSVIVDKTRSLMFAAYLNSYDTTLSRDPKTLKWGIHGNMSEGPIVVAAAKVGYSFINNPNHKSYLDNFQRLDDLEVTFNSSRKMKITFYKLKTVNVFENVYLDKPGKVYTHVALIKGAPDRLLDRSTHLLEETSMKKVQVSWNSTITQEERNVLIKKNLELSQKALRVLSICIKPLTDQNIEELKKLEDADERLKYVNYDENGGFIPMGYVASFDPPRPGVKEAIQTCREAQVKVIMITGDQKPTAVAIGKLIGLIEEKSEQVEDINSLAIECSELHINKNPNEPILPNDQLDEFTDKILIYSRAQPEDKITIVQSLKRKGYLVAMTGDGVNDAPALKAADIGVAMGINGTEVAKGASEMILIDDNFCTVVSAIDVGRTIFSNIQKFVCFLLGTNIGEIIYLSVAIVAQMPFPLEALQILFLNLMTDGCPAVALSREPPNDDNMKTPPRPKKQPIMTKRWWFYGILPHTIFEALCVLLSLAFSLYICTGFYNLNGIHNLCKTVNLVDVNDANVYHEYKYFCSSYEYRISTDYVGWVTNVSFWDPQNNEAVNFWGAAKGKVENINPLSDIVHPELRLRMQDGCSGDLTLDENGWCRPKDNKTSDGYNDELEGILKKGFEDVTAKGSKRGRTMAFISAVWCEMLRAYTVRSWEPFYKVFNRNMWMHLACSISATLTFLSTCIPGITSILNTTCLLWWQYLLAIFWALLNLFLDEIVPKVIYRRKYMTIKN
smiles,measurement,setting,value
"C[C@H]1Cc2c([nH]c3cc(Cl)c(F)cc23)[C@@]2(N1)C(=O)Nc1ccc(Cl)cc12 [KAE609, reference compound]",EC50,[1],4 nM
same,EC50,[2],2 nM
same,EC50,[3],3 nM
same,EC50,[4],9 nM
CN1C(=O)c2c(F)cc(-c3cnn(C)c3)cc2N2C(=O)CCC12C(=O)Nc1cncc(Cl)c1 (centres unmarked) [S-WJM992 (5)],EC50,[5],8 nM
same,effect on parasitemia,[6],cleared parasitemia
same,Rat hepatocytes CLint,[7],14 μL/min/10^6 cells
"CN1C(=O)c2ccc(Cl)cc2NC1(C)C(=O)Nc1cccc(Cl)c1 (centres unmarked) [Compound 11, 7‐Chloro‐N‐(3‐chlorophenyl)‐2,3‐dimethyl‐4‐oxo‐1,2,3,4‐tetrahydroquinazoline‐2‐carboxamide]",EC50,[8],18 nM
same,CC50 at 48 h,[9],> 40000 nM
same,EC50,[10],21 nM
same,EC50,[1],41 nM
same,EC50,[2],36 nM
same,EC50,[3],40 nM
same,EC50,[11],140 nM
same,EC50,[12],44 nM
same,EC50,[13],14 nM
same,EC50,P. falciparum Dd2,17 nM
same,EC50,[14],65 nM
same,EC50,P. falciparum W2^mef,9 nM
same,EC50,P. falciparum 7G8,33 nM
same,EC50,P. falciparum CAM3.1,13 nM
"N#Cc1cc(NC(=O)[C@H]2c3ccccc3C(=O)N(CC(F)(F)F)[C@@H]2c2cccnc2)ccc1F [SJ733, reference compound]",EC50,[1],135 nM
same,EC50,[2],80 nM
same,EC50,[3],129 nM
same,EC50,[15],68 nM
same,EC50,[16],> 11000 nM
"C[C@H]1[C@H](OC(=O)CCC(=O)O)O[C@@H]2O[C@@]3(C)CC[C@H]4[C@H](C)CC[C@@H]1[C@@]24OO3 [artesunate, reference compound]",% parasitemia,P. berghei ANKA; day 4,0.66%
same,% reduction in parasitemia,"P. berghei ANKA; day 4, versus control",96%
"C[C@H]1[C@@H](O)O[C@@H]2O[C@@]3(C)CC[C@H]4[C@H](C)CC[C@@H]1[C@@]24OO3 [dihydroartemisinin, reference compound]",effect on membrane ATPase activity,[17],no effect
